From patent US20060264455A1 (priority 2005, published 2006)

What was measured:
motor skills on rotorod = experiment: Toxicity Model (TOX), rotorod, mice; type: in vivo; conditions: for N/F (mice showing an effect / mice tested), TOX: ip; for Behavioral motor impairment, share of mice tested: po
From the text: To investigate the neurotoxicity levels of the huperzine compounds, the Toxicity Model (TOX) using a rotorod is employed. The animals (e.g., mice) were trained to stand on an accelerating rotorod rotating at 10 rev min^−1 with a diameter of 3.2 cm. The trained animal can be given the huperzine compound at various doses and the effect of huperzine on their motor skills can be determined. The dose at which the animals fell off the rotorod is the toxic dose.
The neurotoxicity of huperzine was tested in the rotorod test. The mice were trained to stand on an accelerating rotorod rotating at 10 rev min^−1 with a diameter of 3.2 cm. The trained animals were given the huperzine at various doses and the effect of huperzine on their motor skills was determined. The dose at which the animals fell off the rotorod was the toxic dose.

[1] = system: subcutaneous Metrazol (pentylenetetrazol) seizures; experiment: Subcutaneous Metrazol (SCMET / scPTZ) model, rats
From the text: The Subcutaneous Metrazole (SCMET) model is also an art-recognized test for therapeutic agents for epilepsy, and in particular, is useful for investigating petite mal seizures.

C/C=C1\[C@H]2C=C(C)C[C@]1(N)c1ccc(=O)[nH]c1C2 [Huperzine A]
Toxicity (motor skills on rotorod; 5 mg/kg I.P., within 30 minutes post administration): toxic in all animals
Behavioral impairment (motor skills on rotorod; mouse, in vivo): marked motor impairment
N/F (mice showing an effect / mice tested), TOX (motor skills on rotorod; mouse, in vivo, 0.1 mg/kg, 4 h): 0/4
N/F (mice showing an effect / mice tested), TOX (motor skills on rotorod; mouse, in vivo, 0.3 mg/kg, 4 h): 0/4
N/F (mice showing an effect / mice tested), TOX (motor skills on rotorod; mouse, in vivo, 1 mg/kg, 0.5 h): 4/4
N/F (mice showing an effect / mice tested), TOX (motor skills on rotorod; mouse, in vivo, 1 mg/kg, 4 h): 2/2
N/F (mice showing an effect / mice tested), TOX (motor skills on rotorod; mouse, in vivo, 3 mg/kg, 0.5 h): 8/8
N/F (mice showing an effect / mice tested), TOX (motor skills on rotorod; mouse, in vivo, 3 mg/kg, 4 h): 4/4
N/F (mice showing an effect / mice tested), TOX (motor skills on rotorod; mouse, in vivo, 10 mg/kg, 0.5 h): 4/4
N/F (mice showing an effect / mice tested), TOX (motor skills on rotorod; mouse, in vivo, 10 mg/kg, 4 h): 2/2
N/F (mice showing an effect / mice tested), TOX (motor skills on rotorod; mouse, in vivo, 30 mg/kg, 0.5 h): 4/4
N/F (mice showing an effect / mice tested), TOX (motor skills on rotorod; mouse, in vivo, 100 mg/kg, 0.5 h): 8/8
N/F (mice showing an effect / mice tested), TOX (motor skills on rotorod; mouse, in vivo, 300 mg/kg, 0.5 h): 4/4
Behavioral motor impairment, share of mice tested (motor skills on rotorod; mouse, in vivo, 2 mg/kg): 75%
Behavioral motor impairment, share of mice tested (motor skills on rotorod; mouse, in vivo, 4 mg/kg): 100%
Time of peak anticonvulsant activity ([1]; after p.o. administration of 1 mg/kg, test not given): one-hour
Maximum protection ([1]; p.o., doses tested 1, 2 and 4 mg/kg, at a non-toxic dose of 1 mg/kg, test not given): 62.5%
N/F, SCMET time course ([1]; rats, oral, 1 mg/kg, 0.25 h): 0/4
N/F, SCMET time course ([1]; rats, oral, 1 mg/kg, 0.5 h): 2/4
N/F, SCMET time course ([1]; rats, oral, 1 mg/kg, 1.0 h): 2/4
N/F, SCMET time course ([1]; rats, oral, 1 mg/kg, 2.0 h): 1/4
N/F, SCMET time course ([1]; rats, oral, 1 mg/kg, 4.0 h): 1/4
N/F, SCMET time course ([1]; rats, oral, 1 mg/kg, 6.0 h): 0/4
Time of peak activity post administration ([1]; rats, oral, 1 mg/kg, MES and SCMET models): between 30 minutes and two hours
Maximum Protection Observed ([1]; scPTZ, Rat, 2 mg/kg, p.o., time of test ½ h): 62.5%
